These results are taken from US20250171438A1 (Agios Pharmaceuticals, Inc., priority 2022, published 2025).

The target in the first test is T1, human PAH with the R408W mutation (Homo sapiens, UniProt P00439, R408W).
T1 construct: expressed in transfected cells
T1 sequence (P00439 1-452 R408W): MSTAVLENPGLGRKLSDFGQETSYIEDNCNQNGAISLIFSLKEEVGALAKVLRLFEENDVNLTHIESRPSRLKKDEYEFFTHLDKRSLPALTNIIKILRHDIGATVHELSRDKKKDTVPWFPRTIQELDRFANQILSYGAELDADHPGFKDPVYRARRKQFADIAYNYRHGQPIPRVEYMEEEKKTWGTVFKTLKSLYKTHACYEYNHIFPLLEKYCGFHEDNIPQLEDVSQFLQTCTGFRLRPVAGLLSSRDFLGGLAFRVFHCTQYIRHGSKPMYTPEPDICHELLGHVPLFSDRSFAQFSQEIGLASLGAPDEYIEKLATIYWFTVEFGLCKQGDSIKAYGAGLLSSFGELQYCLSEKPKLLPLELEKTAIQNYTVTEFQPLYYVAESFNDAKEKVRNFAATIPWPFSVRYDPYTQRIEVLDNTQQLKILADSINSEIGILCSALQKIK
As to the kind of experiment: Cell Based Phenylalanine Flux Assay. As to conditions: A375 cells expressing human R408W PAH; 24 hrs compound incubation; 13C-Tyrosine by LC-MS; average where tested multiple times; read-out: AC50.
Broadly, the AC50 is the midpoint of the concentration-response curve, whichever way the signal moves. On to `O=C(c1cn[nH]c1Cl)N1CCc2[nH]cnc2[C@H]1c1nc2c(F)cccc2s1` [Example 1862], for which the AC50 was 500 to 1000 nM. For “(R)-(4-(benzo[d]thiazol-2-yl)-6,7-dihydro-1H-imidazo[4,5-c]pyridin-5(4H)-yl)(6-bromopyrazolo[1,5-a]pyridin-3-yl)methanone [Example 1046]”, the AC50 lay in the range of 1000 to 5000 nM. In the case of `O=C(CCc1nccs1)N1CCc2[nH]cnc2[C@@H]1c1nc2ccccc2[nH]1` [Example 901, (R)-1-(4-(1H-benzo[d]imidazol-2-yl)-6,7-dihydro-1H-imidazo[4,5-c]pyridin-5(4H)-yl)-3-(thiazol-2-yl)propan-1-one], the AC50 was above 5000 nM. On to `CC(C)(O)c1nnc(C(=O)N2CCc3[nH]cnc3[C@@H]2c2nc3ccccc3s2)o1` [Example 1507, (R)-(4-(benzo[d]thiazol-2-yl)-6,7-dihydro-1H-imidazo[4,5-c]pyridin-5(4H)-yl)(5-(2-hydroxypropan-2-yl)-1,3,4-oxadiazol-2-yl)methanone], for which the AC50 was in the range of 1000 to 5000 nM. For the compound `CC(O)c1nc(Br)c(C(=O)N2CCc3[nH]cnc3[C@@H]2c2nc3c(F)cccc3s2)o1` (single isomer, unassigned) [Example 2060], the AC50 was in the range of 500 to 1000 nM.

`Cc1cnc(C(=O)N2CCc3[nH]cnc3[C@@H]2c2nc3ccccc3s2)s1` [Example 1056, (R)-(4-(benzo[d]thiazol-2-yl)-6,7-dihydro-1H-imidazo[4,5-c]pyridin-5(4H)-yl)(5-methylthiazol-2-yl)methanone]: the AC50 is above 5000 nM.

With `O=C(c1nncs1)N1CCc2[nH]cnc2[C@H]1c1nc2ccc(Cl)cc2[nH]1` [Example 958, (S)-(4-(6-chloro-1H-benzo[d]imidazol-2-yl)-6,7-dihydro-1H-imidazo[4,5-c]pyridin-5(4H)-yl)(1,3,4-thiadiazol-2-yl)methanone], the AC50 lay in the range of 500 to 1000 nM. `CC(C)(O)c1nc(Cl)c(C(=O)N2CCc3[nH]cnc3[C@H]2c2nc3c(F)cccc3s2)o1` [Example 1935, (S)-(4-chloro-2-(2-hydroxypropan-2-yl)oxazol-5-yl)(4-(4-fluorobenzo[d]thiazol-2-yl)-6,7-dihydro-1H-imidazo[4,5-c]pyridin-5(4H)-yl)methanone]: the AC50 was below 500 nM.

`O=C(c1nnc(-c2ccccc2)s1)N1CCc2[nH]cnc2[C@H]1c1nc2ccccc2s1` [Example 1419]: the AC50 was below 500 nM. For the compound `CN1CCN(c2nc(Br)c(C(=O)N3CCc4[nH]cnc4[C@@H]3c3nc4c(F)cccc4s3)o2)CC1` [Example 2032, (R)-(4-bromo-2-(4-methylpiperazin-1-yl)oxazol-5-yl)(4-(4-fluorobenzo[d]thiazol-2-yl)-6,7-dihydro-1H-imidazo[4,5-c]pyridin-5(4H)-yl)methanone], the AC50 is 1000 to 5000 nM. On the same count and under the same terms, to `O=C(c1cnn2ccccc12)N1CCc2[nH]cnc2[C@H]1c1nc2cccc(Br)c2s1` [Example 1335, (S)-(4-(7-bromobenzo[d]thiazol-2-yl)-6,7-dihydro-1H-imidazo[4,5-c]pyridin-5(4H)-yl)(pyrazolo[1,5-a]pyridin-3-yl)methanone] belongs below 500 nM; to `N#Cc1nc(N2CCC(F)CC2)oc1C(=O)N1CCc2[nH]cnc2[C@H]1c1nc2ccccc2s1` [Example 1651, (S)-5-(4-(benzo[d]thiazol-2-yl)-4,5,6,7-tetrahydro-1H-imidazo[4,5-c]pyridine-5-carbonyl)-2-(4-fluoropiperidin-1-yl)oxazole-4-carbonitrile], 500 to 1000 nM; to `O=C(c1oc(C2CC(F)(F)C2)nc1C(F)F)N1CCc2[nH]cnc2[C@@H]1c1nc2ccccc2s1` [Example 1785, (R)-(4-(benzo[d]thiazol-2-yl)-6,7-dihydro-1H-imidazo[4,5-c]pyridin-5(4H)-yl)(2-(3,3-difluorocyclobutyl)-4-(difluoromethyl)oxazol-5-yl)methanone], below 500 nM. The same measure, in the same setting: to `O=C(c1ocnc1-c1ccccc1)N1CCc2[nH]cnc2[C@H]1c1nc2c(F)cccc2s1` [Example 2177, (S)-(4-(4-fluorobenzo[d]thiazol-2-yl)-6,7-dihydro-1H-imidazo[4,5-c]pyridin-5(4H)-yl)(4-phenyloxazol-5-yl)methanone] belongs 500 to 1000 nM. For `CNC(C)(C)c1nc(C(F)F)c(C(=O)N2CCc3[nH]cnc3[C@H]2c2nc3c(F)cccc3s2)o1` [Example 2069, (S)-(4-(difluoromethyl)-2-(2-(methylamino)propan-2-yl)oxazol-5-yl)(4-(4-fluorobenzo[d]thiazol-2-yl)-6,7-dihydro-1H-imidazo[4,5-c]pyridin-5(4H)-yl)methanone], the AC50 was below 500 nM. Still for that read-out and setting: to `O=C(c1ncn2ccccc12)N1CCc2[nH]cnc2[C@H]1c1nc2cccc(F)c2s1` [Example 1268, (S)-(4-(7-fluorobenzo[d]thiazol-2-yl)-6,7-dihydro-1H-imidazo[4,5-c]pyridin-5(4H)-yl)(imidazo[1,5-a]pyridin-1-yl)methanone] belongs below 500 nM. In the case of `Cc1nc(C)c(C(=O)N2CCc3[nH]cnc3[C@@H]2c2nc3ccccc3s2)s1` [Example 1178, (R)-(4-(benzo[d]thiazol-2-yl)-6,7-dihydro-1H-imidazo[4,5-c]pyridin-5(4H)-yl)(2,4-dimethylthiazol-5-yl)methanone], the AC50 is above 5000 nM. Regarding `O=C(CC1(O)CCC1)N1CCc2[nH]cnc2[C@@H]1c1nc2ccccc2s1` [Example 1658, (R)-1-(4-(benzo[d]thiazol-2-yl)-6,7-dihydro-1H-imidazo[4,5-c]pyridin-5(4H)-yl)-2-(1-hydroxycyclobutyl)ethanone], the AC50 was in the range of 500 to 1000 nM.

For the compound `Cc1c(C(=O)N2CCc3[nH]cnc3[C@H]2c2nc3c(F)cccc3s2)cnn1CC(F)(F)F` [Example 1919, (S)-(4-(4-fluorobenzo[d]thiazol-2-yl)-6,7-dihydro-1H-imidazo[4,5-c]pyridin-5(4H)-yl)(5-methyl-1-(2,2,2-trifluoroethyl)-1H-pyrazol-4-yl)methanone], the AC50 lay within 500 to 1000 nM. Still for that read-out and setting: to `O=C(c1cnc(-c2ccccn2)o1)N1CCc2[nH]cnc2[C@H]1c1nc2ccccc2s1` [Example 1317] belongs below 500 nM; to `Cn1nccc1-c1nnc(C(=O)N2CCc3[nH]cnc3[C@@H]2c2nc3ccccc3s2)o1` [Example 1946, (R)-(4-(benzo[d]thiazol-2-yl)-6,7-dihydro-1H-imidazo[4,5-c]pyridin-5(4H)-yl)(5-(1-methyl-1H-pyrazol-5-yl)-1,3,4-oxadiazol-2-yl)methanone], 1000 to 5000 nM; to `O=C(N1CCc2[nH]cnc2[C@@H]1c1nc2ccccc2s1)C(F)(F)C1(O)CCC1` [Example 1688, (R)-1-(4-(benzo[d]thiazol-2-yl)-6,7-dihydro-1H-imidazo[4,5-c]pyridin-5(4H)-yl)-2,2-difluoro-2-(1-hydroxycyclobutyl)ethanone], 1000 to 5000 nM. On to `O=C(c1ncc(-c2ccccc2)s1)N1CCc2[nH]cnc2[C@H]1c1nc2ccccc2s1` [Example 1189], for which the AC50 lay in the range of 1000 to 5000 nM. With `O=C(c1cnc(-c2ccnc(C(F)(F)F)c2)s1)N1CCc2[nH]cnc2[C@H]1c1nc2ccccc2s1` [Example 1403], the AC50 is 500 to 1000 nM. Take `Cn1nncc1C(=O)N1CCc2[nH]cnc2[C@H]1c1nc2c(F)cccc2s1` [Example 1725]: the half-maximal activity concentration (AC50) was 500 to 1000 nM. The same measure, in the same setting: to `O=C(CCc1nccs1)N1CCc2[nH]cnc2[C@@H]1c1nc2ccc(F)cc2s1` [Example 1030, (R)-1-(4-(6-fluorobenzo[d]thiazol-2-yl)-6,7-dihydro-1H-imidazo[4,5-c]pyridin-5(4H)-yl)-3-(thiazol-2-yl)propan-1-one] belongs above 5000 nM; to `O=C(c1cnc(Cc2ccccc2)s1)N1CCc2[nH]cnc2[C@H]1c1nc2ccccc2s1` [Example 1227], 1000 to 5000 nM; to `N#Cc1ncoc1C(=O)N1CC2(CC2)c2[nH]cnc2[C@H]1c1nc2ccccc2s1` [Example 1664, (S)-5-(4′-(benzo[d]thiazol-2-yl)-1′,4′,5′,6′-tetrahydrospiro[cyclopropane-1,7′-imidazo[4,5-c]pyridin]-5′-ylcarbonyl)oxazole-4-carbonitrile], 1000 to 5000 nM.

Staying with this test, now noted: A375 cells expressing human R408W PAH; 24 hrs with compound; 13C-Tyrosine by LC-MS; average where tested multiple times; read-out: AC50.
As to `Cn1nc(C(C)(C)O)cc1C(=O)N1CCc2[nH]cnc2C1c1nc2c(F)cccc2s1` (centres unmarked), the AC50 lay in the range of 1000 to 5000 nM. On to `Cn1nc(C(N)=O)cc1C(=O)N1CCc2[nH]cnc2C1c1nc2c(F)cccc2s1` (centres unmarked), for which the AC50 was in the range of 1000 to 5000 nM. As to `O=C(Cc1cnn2ccccc12)N1CCc2[nH]cnc2C1c1nc2ccccc2s1` (centres unmarked), the half-maximal activity concentration (AC50) fell in the range of 1000 to 5000 nM. `O=C(C1CC1F)N1CCc2[nH]cnc2C1c1nc2ccccc2s1` (centres unmarked): the concentration at half-maximal activity (AC50) lay in the range of 1000 to 5000 nM.

`Cc1ncc(C(=O)N2CCc3[nH]cnc3C2c2nc3ccccc3s2)o1` (centres unmarked): the AC50 is above 5000 nM. On to `O=C(c1cc(C(F)F)n[nH]1)N1CCc2[nH]cnc2C1c1nc2c(F)cccc2s1` (centres unmarked), for which the AC50 is 1000 to 5000 nM. As for `Cc1ncoc1CC(=O)N1CCc2[nH]cnc2C1c1nc2ccccc2s1` (centres unmarked), the AC50 lay within 1000 to 5000 nM. On to `Cc1csc(CCC(=O)N2CCc3[nH]cnc3[C@H]2c2nc3ccccc3[nH]2)n1` [(S)-1-(4-(1H-benzo[d]imidazol-2-yl)-1,4,6,7-tetrahydro-5H-imidazo[4,5-c]pyridin-5-yl)-3-(4-methylthiazol-2-yl)propan-1-one], for which the AC50 fell in the range of 1000 to 5000 nM. On to `O=C(Cc1nccs1)N1CCc2[nH]cnc2C1c1nc2ccc(F)cc2[nH]1` (centres unmarked), for which the AC50 was above 5000 nM.

`O=C(c1cnn2cccc(F)c12)N1CCc2[nH]cnc2C1c1nc2c(F)cccc2s1` (centres unmarked): the half-maximal activity concentration (AC50) is above 5000 nM.
